Laboratory results from ChEMBL document CHEMBL5244273, “Tuberculosis: An Overview of the Immunogenic Response, Disease Progression, and Medicinal Chemistry Efforts in the Last Decade toward the Development of Potential Drugs for Extensively Drug-Resistant Tuberculosis Strains” (J Med Chem, 2021).
In brackets after ≈: the same amount, converted by molar mass.

Assays:
[1] = system: Mycobacterium tuberculosis; assay: Antimycobacterial activity against Mycobacterium tuberculosis H37Rv; format: functional
[2] = (§1) Cytotoxicity against African green monkey Vero cells; format: toxicity, cell-based, Chlorocebus sabaeus; settings: African green monkey, Vero cells
[3] = Cytotoxicity against African green monkey Vero cells assessed as inhibition of cell growth incubated for 72 hrs by MTT assay; format: toxicity, cell-based, Chlorocebus sabaeus
[4] = system: Mycobacterium tuberculosis; assay: Antimycobacterial activity against Mycobacterium tuberculosis H37Rv assessed as inhibition of bacterial growth incubated for 5 days by alamar blue assay; format: functional; settings: 120 h, time 5 day
[5] = system: Mycobacterium tuberculosis; assay: Antimycobacterial activity against Mycobacterium tuberculosis H37Rv […]; format: functional
[6] = system: Mycobacterium tuberculosis; assay: Antitubercular activity against Mycobacterium tuberculosis XDR-FJ05195 assessed as inhibition of bacterial growth by microplate alamar blue assay; format: functional
[7] = system: Mycobacterium tuberculosis; assay: Antitubercular activity against Mycobacterium tuberculosis MDR-FJ05189 assessed as inhibition of bacterial growth by microplate alamar blue assay; format: functional
[8] = system: Mycobacterium tuberculosis; assay: Antitubercular activity against Mycobacterium tuberculosis H37Rv by resazurin microtitre assay; format: functional
[9] = system: Mycobacterium tuberculosis; assay: Antitubercular activity against Mycobacterium tuberculosis MDR-FJ05120 assessed as inhibition of bacterial growth by microplate alamar blue assay; format: functional
[10] = system: Mycobacterium tuberculosis; assay: Antitubercular activity against Mycobacterium tuberculosis H37Rv ATCC 27294 assessed as inhibition of bacterial growth by microplate alamar blue assay; format: functional
[11] = system: Mycobacterium tuberculosis; assay: Antitubercular activity against Mycobacterium tuberculosis STB-FJ05060 assessed as inhibition of bacterial growth by microplate alamar blue assay; format: functional
[12] = system: Mycobacterium tuberculosis; assay: Antitubercular activity against Mycobacterium tuberculosis STB-FJ05349 assessed as inhibition of bacterial growth by microplate alamar blue assay; format: functional
[13] = system: Mycobacterium tuberculosis; assay: Antitubercular activity against Mycobacterium tuberculosis H37Rv assessed as inhibition of bacterial growth by alamar blue assay; format: functional
[14] = Cytotoxicity against HEK293T cells assessed as reduction in cell viability; format: toxicity, cell-based, HEK-293T; settings: human
[15] = system: Staphylococcus aureus; assay: Antibacterial activity against methicillin susceptible Staphylococcus aureus ATCC 29213; format: functional
[16] = system: Mycobacterium tuberculosis; assay: Antimycobacterial activity against Mycobacterium tuberculosis H37Rv incubated for 5 weeks; format: functional; settings: 840 h
[17] = system: Mycobacterium tuberculosis; assay: Antimycobacterial activity against Mycobacterium tuberculosis H37Rv incubated for 2 weeks; format: functional; settings: 336 h
[18] = system: Mycobacterium tuberculosis; assay: Antimycobacterial activity against Mycobacterium tuberculosis H37Rv incubated for 4 weeks; format: functional; settings: 672 h
[19] = system: Staphylococcus epidermidis; assay: Antibacterial activity against Staphylococcus epidermidis; format: functional
[20] = system: Mycobacterium tuberculosis; assay: Antimycobacterial activity against Mycobacterium tuberculosis H37Rv incubated for 3 weeks; format: functional; settings: 504 h
[21] = system: Escherichia coli; assay: Antibacterial activity against ESBL negative Escherichia coli ATCC 25922; format: functional
[22] = system: Vero; assay: as §1; format: toxicity, cell-based, Chlorocebus sabaeus; settings: chlorocebus sabaeus, vero
[23] = system: Mycobacterium tuberculosis; assay: Antitubercular activity against active stage of Mycobacterium tuberculosis H37Ra; format: functional
[24] = system: Mycobacterium tuberculosis; assay: Antitubercular activity against dormant stage of Mycobacterium tuberculosis H37Ra; format: functional

For `CC(=O)N1N=C(c2ccc3oc(NC(=O)CCl)nc3c2)CC1c1cccs1` (stereo unspecified), the MIC [1] was 6.25 µg/mL (≈ 15.5 µM) and the IC50 [2] was over 62.5 µg/mL.
For `Cc1cc(O)n2nc(Nc3ccc(F)c(F)c3)c(C(=O)Nc3ccc(F)cc3)c2n1`, the IC50 at 72 h [3] was 13.6 µg/mL (≈ 32.8 µM) and the MIC [4] was 0.8 µg/mL (≈ 1.94 µM).
Work on `CC(=O)N1/C(=C/c2ccc(-c3ccc(C)cc3)cc2)C(=O)c2ccccc21` yielded an MIC [5] of 14.8 µM (≈ 5.23 µg/mL), an MIC90 [1] of 2.71 µM (≈ 0.958 µg/mL) and an MIC99 [1] of 4.37 µM (≈ 1.54 µg/mL).
`Cc1ccc(NC(=O)c2c(Nc3ccc(Cl)cc3)nn3c(O)cc(C)nc23)cc1` showed an IC50 at 72 h [3] of 21 µg/mL (≈ 51.5 µM) and an MIC [4] of 3.12 µg/mL (≈ 7.65 µM).
`CC(=O)N1/C(=C/c2ccc(-c3ccccc3)cc2)C(=O)c2ccccc21` gave an MIC [5] of 12.3 µM (≈ 4.17 µg/mL), an MIC90 [1] of 1.32 µM (≈ 0.448 µg/mL) and an MIC99 [1] of 2.29 µM (≈ 0.777 µg/mL).
In the case of `NNC(=O)c1ccncc1` [ISONIAZID], the MIC [6] is reported as over 256 µg/mL, the MIC [7] is reported as under 0.5 µg/mL and the MIC [8] is reported as 0.19 µg/mL (≈ 1.39 µM). For the same compound, the MIC [9] was 4 µg/mL (≈ 29.2 µM), the MIC [10] was 0.125 µg/mL (≈ 0.911 µM) and the MIC [1] was 0.5 µg/mL (≈ 3.65 µM). For the same compound, the MIC [4] was 0.5 µg/mL (≈ 3.65 µM), the MIC [11] was under 0.5 µg/mL and the MIC [12] was under 0.5 µg/mL.
`Cc1cc(O)n2nc(Nc3ccc(Cl)c(Cl)c3)c(C(N)=O)c2n1` gave an IC50 at 72 h [3] of 29 µg/mL (≈ 82.4 µM) and an MIC [4] of 6.25 µg/mL (≈ 17.7 µM).
In the case of `CC(=O)N1N=C(c2ccc3oc(-c4ccc(O)cc4)nc3c2)CC1c1cccs1` (stereo unspecified), the MIC [1] is reported as 0.8 µg/mL (≈ 1.98 µM) and the IC50 [2] is reported as 32.5 µg/mL (≈ 80.6 µM).
`CN[C@@H]1[C@H](O[C@H]2[C@H](O[C@H]3[C@H](O)[C@@H](O)[C@H](N=C(N)N)[C@@H](O)[C@@H]3N=C(N)N)O[C@@H](C)[C@]2(O)C=O)O[C@@H](CO)[C@H](O)[C@H]1O` [STREPTOMYCIN] showed an MIC [13] of 6.25 µg/mL (≈ 10.7 µM), an MIC [8] of 0.19 µg/mL (≈ 0.327 µM) and an MIC [1] of 6.25 µg/mL (≈ 10.7 µM). For the same compound, the MIC [4] was 6.25 µg/mL (≈ 10.7 µM).
Work on `NC(=O)c1cnccn1` [PYRAZINAMIDE] yielded an MIC [13] of 3.12 µg/mL (≈ 25.4 µM), an MIC [8] of over 200 µg/mL and an MIC [1] of 3.12 µg/mL (≈ 25.3 µM). It also gave an MIC [4] of 3.12 µg/mL (≈ 25.3 µM).
With `CC(=O)N1/C(=C/c2ccc(-c3ccc(Cl)cc3)cc2)C(=O)c2ccccc21` the CC50 [14] was 7 µM, the MIC [5] was 8.37 µM (≈ 3.13 µg/mL) and the MIC90 [1] was 2.32 µM (≈ 0.867 µg/mL). It also gave an MIC99 [1] of 4.05 µM (≈ 1.51 µg/mL).
For `C[C@H]1COc2c(N3CCN(C)CC3)c(F)cc3c(=O)c(C(=O)O)cn1c23.C[C@H]1COc2c(N3CCN(C)CC3)c(F)cc3c(=O)c(C(=O)O)cn1c23.O` [LEVOFLOXACIN], the MIC [15] was 0.25 µg/mL, the MIC [16] was 0.25 µg/mL and the MIC [17] was 0.25 µg/mL. For the same compound, the MIC [18] was 0.25 µg/mL, the MIC [19] was 0.25 µg/mL and the MIC [20] was 0.25 µg/mL.
Compound `O=C(Nc1nc(-c2ccccn2)cs1)c1ccc(Cl)s1` has an MIC [15] of 32 µg/mL (≈ 99.4 µM), an MIC [6] of 0.25 µg/mL (≈ 0.777 µM) and an MIC [7] of 4 µg/mL (≈ 12.4 µM). It also gave an MIC [9] of 0.25 µg/mL (≈ 0.777 µM), an MIC [19] of 32 µg/mL (≈ 99.4 µM) and an MIC [10] of 0.08 µg/mL (≈ 0.249 µM). The MIC [21] was 256 µg/mL (≈ 795 µM), the MIC [11] was 0.08 µg/mL (≈ 0.249 µM) and the MIC [12] was 0.08 µg/mL (≈ 0.249 µM).
Work on `COc1cccc(C(=O)Nc2nc3cc(C4=NN(C(C)=O)C(c5cccs5)C4)ccc3o2)c1` (stereo unspecified) yielded an MIC [1] of 1.6 µg/mL (≈ 3.47 µM) and an IC5 [22] of over 62.5 µg/mL.
In the case of `COc1ccccc1NC(=O)c1c(Nc2cccc(C)c2)nn2c(O)cc(C)nc12`, the IC50 at 72 h [3] is reported as 21.3 µg/mL (≈ 52.7 µM) and the MIC [4] is reported as 3.12 µg/mL (≈ 7.73 µM).
Compound `CC(=O)N1/C(=C/c2ccc(Br)cc2)C(=O)c2ccccc21` has an MIC [5] of 15.2 µM (≈ 5.2 µg/mL), an MIC90 [1] of 0.31 µM (≈ 0.106 µg/mL) and an MIC99 [1] of 0.37 µM (≈ 0.127 µg/mL).
For `CO[C@H]1/C=C/O[C@@]2(C)Oc3c(C)c(O)c4c(O)c(c(/C=N/N5CCN(C)CC5)c(O)c4c3C2=O)NC(=O)/C(C)=C\C=C\[C@H](C)[C@H](O)[C@@H](C)[C@@H](O)[C@@H](C)[C@H](OC(C)=O)[C@@H]1C` [RIFAMPIN], the MIC [6] was 4 µg/mL (≈ 4.86 µM), the MIC [5] was 0.377 µM (≈ 0.31 µg/mL) and the MIC [7] was over 256 µg/mL. For the same compound, the MIC [8] was 0.049 µg/mL (≈ 0.0595 µM), the MIC [23] was 0.75 µg/mL (≈ 0.911 µM) and the MIC [9] was over 256 µg/mL. The MIC [10] was 0.125 µg/mL (≈ 0.152 µM), the MIC90 [1] was 0.00291 µM (≈ 0.00239 µg/mL) and the MIC99 [1] was 0.00482 µM (≈ 0.00397 µg/mL). The MIC [24] was 0.91 µg/mL (≈ 1.11 µM), the MIC [11] was under 0.5 µg/mL and the MIC [12] was under 0.5 µg/mL.
